Source: US20250205344A1, “2,4-DIOXOTETRAHYDROPYRIMIDINYL DERATIVES AS DEGRONS IN PROTACS” (GLAXOSMITHKLINE INTELLECTUAL PROPERTY DEVELOPMENT LIMITED, priority 2022, published 2025)
Counter-ions that a name gives are not always drawn.

What was measured:
Type in all cases: cell-based
[1] = target: T1, RIPK2 (Homo sapiens, UniProt O43353); experiment: RIPK2 Degradation Assay (Nano-Glo HiBiT); details: HiBiT-tagged RIPK2 in HEK 293 cells, 18 h
T1 construct: the RIPK2 gene was modified, using CRISPR/Cas9 editing, so the expressed RIPK2 protein included an 11 amino acid HiBiT tag; endogenous in cells; host or cells: clonal HEK 293-derived line, RIPK2 gene edited by CRISPR/Cas9 (heterozygous)
Description: Degradation of RIPK2 protein in human embryonic kidney (HEK 293) cells treated with PROTACs was quantified using the Nano-Glo® HiBiT Lytic Detection System (Promega) in 384 well assay plate format. A clonal HEK 293 derived cell line was first established in which the RIPK2 gene was modified, using CRISPR/Cas9 editing, so the expressed RIPK2 protein included an 11 amino acid HiBiT tag at it's amino-terminus. The cell lines were heterozygotic for the HiBIT modification. Cells were cryopreserved in aliquots in 90% foetal bovine serum (FBS), 10% DMSO and stored at −150° C. 10 mM DMSO stock solutions of PROTACs were prepared and diluted across an 11 concentration, 3 fold increment range, and 25 nL dispensed into a white opaque bottomed 384 well assay plate (Thermofisher) using an acoustic ECHO dispenser (Labcyte). For the assay, a cryopreserved vials of cells was rapidly thawed and suspended in 30 mL of assay medium (FluoroBrite™ DMEM supplemented with 10% heat inactivated FBS, penicillin 50 U/mL and streptomycin 50 ug/mL (Thermofisher)). The cell suspension was centrifuged at 400 g for 5 min and the pellet resuspended in assay medium. 25 μL of cell suspension containing 10,000 cells was dispensed into each well of the assay plate containing the test compounds, which was then incubated for 18 h at 37° C./5% CO2. Control wells were included on each assay plate, with assay medium without cells being the no RIPK2 remaining 100% effect control, and cells treated with DMSO vehicle only, without PROTAC, the 0% effect control. 25 μL of Nano-Glo® HiBiT lysis buffer supplemented with LgBiT protein and Nano-Glo® substrate (Promega) was added to each well and the plate shaken at 500 rpm for 10 min at room temperature. The intensity of luminescence was measured using a PHERAstar microplate reader (BMG Labtech) and the % RIPK2 protein remaining in each well calculated by normalising the raw luminescence value to the above control wells. Parameters corresponding to the potency and efficacy estimates of the PROTACs were obtained from these normalised luminescence values using software (IDBS ActivityBase). These included the DC50 and the Dmax estimates. Two versions of the DC50, called relative DC50 and absolute DC50, were typically generated. These are the inflection point of a fitted 4 parameter sigmoidal response curve and the interpolated concentration of PROTAC corresponding to 50% of the protein being degraded, respectively. The Dmax parameter was the maximum experimentally observed degradation and the asymptote max parameter the fitted response curve asymptote maximum.

[2] = target: T2, Androgen Receptor (Homo sapiens, UniProt P10275, T878A); experiment: Androgen Receptor Degradation Assay (Nano-Glo HiBiT); details: LNCaP, 18 h, HiBiT-tagged AR in human LnCaP cells, read-out: mean asymptote max
T2 construct: the AR gene was modified, using CRISPR/Cas9 editing, so the expressed AR protein included an 11 amino acid HiBiT tag; endogenous in cells; host or cells: clonal LnCaP-derived line, AR gene edited by CRISPR/Cas9
Summary of the method: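 LnCaP cells with CRISPR-knocked-in N-terminal HiBiT-tagged AR (10,000/well) treated 18 h at 37 °C with PROTACs over 11 threefold concentrations; lytic HiBiT luminescence normalised to DMSO (0%) and cell-free (100%) controls. Relative DC50 = 4-parameter fit inflection; absolute DC50 = 50% degradation interpolation; Dmax = maximum observed degradation.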

[3] = target: T3, Androgen Receptor dual T878A/L702H mutant protein (Homo sapiens, UniProt P10275, L702H/T878A); experiment: Dual Mutant (T878A/L702H) Androgen Receptor Degradation Assay (HTRF); details: MDA-PCa-2b, 18 h, human MDA PCa 2b cells, read-out: mean asymptote max
T3 construct: Androgen Receptor dual T878A/L702H mutant protein in human MDA PCa 2b (ATCC, #CRL-2422) cells; host or cells: MDA PCa 2b
T3 sequence (P10275 1-920 L702H/T878A): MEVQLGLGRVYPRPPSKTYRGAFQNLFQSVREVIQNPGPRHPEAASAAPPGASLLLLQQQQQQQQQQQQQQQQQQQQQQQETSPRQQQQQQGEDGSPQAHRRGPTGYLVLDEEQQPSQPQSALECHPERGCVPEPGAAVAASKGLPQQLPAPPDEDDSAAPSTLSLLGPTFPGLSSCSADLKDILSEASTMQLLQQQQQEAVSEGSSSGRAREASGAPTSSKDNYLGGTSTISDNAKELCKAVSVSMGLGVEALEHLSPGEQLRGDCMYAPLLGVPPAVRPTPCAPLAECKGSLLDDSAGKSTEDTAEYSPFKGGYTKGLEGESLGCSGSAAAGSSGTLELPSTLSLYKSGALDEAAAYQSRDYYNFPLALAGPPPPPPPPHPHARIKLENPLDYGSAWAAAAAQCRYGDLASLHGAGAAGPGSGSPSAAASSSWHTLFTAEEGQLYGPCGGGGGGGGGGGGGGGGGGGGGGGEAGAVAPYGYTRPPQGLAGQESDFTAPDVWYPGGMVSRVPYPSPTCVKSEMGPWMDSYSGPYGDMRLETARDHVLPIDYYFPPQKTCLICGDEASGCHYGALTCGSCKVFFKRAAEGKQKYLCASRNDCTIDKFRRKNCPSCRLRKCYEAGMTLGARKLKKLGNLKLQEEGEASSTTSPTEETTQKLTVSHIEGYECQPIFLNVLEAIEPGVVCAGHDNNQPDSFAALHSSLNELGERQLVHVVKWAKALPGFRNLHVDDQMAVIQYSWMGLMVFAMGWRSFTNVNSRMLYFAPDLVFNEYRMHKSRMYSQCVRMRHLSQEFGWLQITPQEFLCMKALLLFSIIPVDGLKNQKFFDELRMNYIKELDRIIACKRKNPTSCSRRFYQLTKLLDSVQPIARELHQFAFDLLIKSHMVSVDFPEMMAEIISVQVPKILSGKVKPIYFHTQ
Description: Degradation of Androgen Receptor dual T878A/L702H mutant protein in human MDA PCa 2b (ATCC, #CRL-2422) cells treated with PROTACs was quantified using the HTRF Human Androgen Receptor Detection Kit (PerkinElmer, #64ANDRPEH) in 384 well assay plate format. 10 mM DMSO(Sigma-Aldrich, #472301) stock solutions of PROTACs were prepared and diluted across an 11 concentration, 3-fold increment range, and 25 nL dispensed into a white opaque bottomed 384 well assay plate (Thermofisher, #164610) using an acoustic ECHO dispenser (Labcyte). Cells were cultured in growth medium (BRFF-HPC-1 (Athena ES, #0403) supplemented with 20% FBS (Gibco, #10099-141), penicillin 50 U/mL and streptomycin 50 ug/mL (Gibco, #15140-122)) in collagen I or poly-D-lysine coated T175 flasks (Corning, #356487 or #356539, respectively). For the assay, cells were harvested from the flask, centrifuged at 200 g for 5 min and then resuspended in the growth medium. 25 μl of cell suspension containing 10,000 cells was dispensed into each well of the assay plate containing the test compounds, which was then incubated for 18 h at 37° C./5% CO2. Control wells were included on each assay plate, with assay medium without cells being the no AR remaining 100% effect control, and cells treated with DMSO vehicle only, without PROTAC, the 0% effect control. After 18 h incubation 8 μl of supplemented lysis buffer from HTRF kit was added to each well and the plate shaken at 500 rpm for 1 h at room temperature. 8 μl of antibody mix in Detection buffer from HTRF kit was added to each well and the plate was incubated for 2 h in dark at room temperature. The fluorescence was measured at both 620 nm and 665 nm using an excitation wavelength of 337 nm with a PHERAstar microplate reader (BMG Labtech) and the % AR protein remaining in each well was calculated by normalising the HTRF ratio (665 nm signal/620 nm signal) value to the control wells mentioned above. Parameters corresponding to the potency and efficacy estimates of the PROTACs were obtained from these normalised values using curve fitting software (IDBS ActivityBase). These included the DC50 and the Dmax estimates. Two versions of the DC50, called relative DC50 and absolute DC50, were typically generated. These are the inflection point of a fitted 4 parameter sigmoidal response curve and the interpolated concentration of PROTAC corresponding to 50% of the protein being degraded, respectively. The Dmax parameter was the maximum experimentally observed degradation and the asymptote max parameter the fitted response curve asymptote maximum.

T1 sequence (O43353 whole entry): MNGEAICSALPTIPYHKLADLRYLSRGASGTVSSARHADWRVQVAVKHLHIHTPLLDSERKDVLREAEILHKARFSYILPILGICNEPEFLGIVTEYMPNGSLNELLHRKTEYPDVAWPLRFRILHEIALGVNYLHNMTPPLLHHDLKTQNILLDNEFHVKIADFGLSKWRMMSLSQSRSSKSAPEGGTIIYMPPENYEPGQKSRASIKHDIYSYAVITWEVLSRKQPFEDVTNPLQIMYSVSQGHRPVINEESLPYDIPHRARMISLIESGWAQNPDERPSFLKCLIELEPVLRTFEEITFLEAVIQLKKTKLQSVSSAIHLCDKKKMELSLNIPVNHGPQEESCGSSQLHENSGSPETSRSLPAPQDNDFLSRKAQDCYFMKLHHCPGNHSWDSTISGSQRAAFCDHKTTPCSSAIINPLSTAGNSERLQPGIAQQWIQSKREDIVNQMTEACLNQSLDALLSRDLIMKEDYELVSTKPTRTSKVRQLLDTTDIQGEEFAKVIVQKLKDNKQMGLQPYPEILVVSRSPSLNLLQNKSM
T2 sequence (P10275 whole entry T878A): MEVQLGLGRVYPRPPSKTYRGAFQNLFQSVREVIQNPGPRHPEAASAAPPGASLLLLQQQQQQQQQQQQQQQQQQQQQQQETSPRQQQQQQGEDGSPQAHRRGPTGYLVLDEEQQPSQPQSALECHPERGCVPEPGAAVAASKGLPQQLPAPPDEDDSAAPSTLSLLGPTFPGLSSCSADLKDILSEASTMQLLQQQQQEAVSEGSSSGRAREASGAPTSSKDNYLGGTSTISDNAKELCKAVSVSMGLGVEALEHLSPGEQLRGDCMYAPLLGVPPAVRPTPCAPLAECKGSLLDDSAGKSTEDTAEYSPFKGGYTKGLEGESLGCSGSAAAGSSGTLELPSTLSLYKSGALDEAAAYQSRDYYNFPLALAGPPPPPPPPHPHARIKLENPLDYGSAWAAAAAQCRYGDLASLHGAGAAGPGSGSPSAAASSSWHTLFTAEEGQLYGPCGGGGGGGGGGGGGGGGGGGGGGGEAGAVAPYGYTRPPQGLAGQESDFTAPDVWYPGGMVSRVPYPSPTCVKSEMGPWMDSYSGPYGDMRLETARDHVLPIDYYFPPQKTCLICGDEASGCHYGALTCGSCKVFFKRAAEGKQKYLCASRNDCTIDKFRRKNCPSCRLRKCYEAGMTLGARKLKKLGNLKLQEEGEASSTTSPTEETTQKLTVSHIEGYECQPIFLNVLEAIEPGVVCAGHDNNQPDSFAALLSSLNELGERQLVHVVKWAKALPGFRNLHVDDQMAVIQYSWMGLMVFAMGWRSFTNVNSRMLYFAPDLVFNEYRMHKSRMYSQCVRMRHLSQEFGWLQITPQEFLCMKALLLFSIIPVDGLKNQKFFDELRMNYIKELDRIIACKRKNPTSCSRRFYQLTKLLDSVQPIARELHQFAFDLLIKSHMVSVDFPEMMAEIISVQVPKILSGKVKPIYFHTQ
T2 sequence (Q96SW2 whole entry partner): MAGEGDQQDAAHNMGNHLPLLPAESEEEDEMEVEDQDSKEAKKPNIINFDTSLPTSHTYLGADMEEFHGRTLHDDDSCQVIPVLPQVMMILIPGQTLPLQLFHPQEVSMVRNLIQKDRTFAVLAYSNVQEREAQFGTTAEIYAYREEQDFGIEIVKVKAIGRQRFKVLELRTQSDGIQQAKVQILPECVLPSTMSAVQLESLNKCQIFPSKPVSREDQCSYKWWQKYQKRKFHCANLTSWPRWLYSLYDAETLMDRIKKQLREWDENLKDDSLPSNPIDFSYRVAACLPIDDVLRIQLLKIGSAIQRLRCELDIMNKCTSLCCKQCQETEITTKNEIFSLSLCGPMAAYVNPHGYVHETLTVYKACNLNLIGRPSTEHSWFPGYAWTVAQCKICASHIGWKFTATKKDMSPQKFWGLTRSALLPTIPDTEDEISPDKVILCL
T2 sequence (Q16531 whole entry partner): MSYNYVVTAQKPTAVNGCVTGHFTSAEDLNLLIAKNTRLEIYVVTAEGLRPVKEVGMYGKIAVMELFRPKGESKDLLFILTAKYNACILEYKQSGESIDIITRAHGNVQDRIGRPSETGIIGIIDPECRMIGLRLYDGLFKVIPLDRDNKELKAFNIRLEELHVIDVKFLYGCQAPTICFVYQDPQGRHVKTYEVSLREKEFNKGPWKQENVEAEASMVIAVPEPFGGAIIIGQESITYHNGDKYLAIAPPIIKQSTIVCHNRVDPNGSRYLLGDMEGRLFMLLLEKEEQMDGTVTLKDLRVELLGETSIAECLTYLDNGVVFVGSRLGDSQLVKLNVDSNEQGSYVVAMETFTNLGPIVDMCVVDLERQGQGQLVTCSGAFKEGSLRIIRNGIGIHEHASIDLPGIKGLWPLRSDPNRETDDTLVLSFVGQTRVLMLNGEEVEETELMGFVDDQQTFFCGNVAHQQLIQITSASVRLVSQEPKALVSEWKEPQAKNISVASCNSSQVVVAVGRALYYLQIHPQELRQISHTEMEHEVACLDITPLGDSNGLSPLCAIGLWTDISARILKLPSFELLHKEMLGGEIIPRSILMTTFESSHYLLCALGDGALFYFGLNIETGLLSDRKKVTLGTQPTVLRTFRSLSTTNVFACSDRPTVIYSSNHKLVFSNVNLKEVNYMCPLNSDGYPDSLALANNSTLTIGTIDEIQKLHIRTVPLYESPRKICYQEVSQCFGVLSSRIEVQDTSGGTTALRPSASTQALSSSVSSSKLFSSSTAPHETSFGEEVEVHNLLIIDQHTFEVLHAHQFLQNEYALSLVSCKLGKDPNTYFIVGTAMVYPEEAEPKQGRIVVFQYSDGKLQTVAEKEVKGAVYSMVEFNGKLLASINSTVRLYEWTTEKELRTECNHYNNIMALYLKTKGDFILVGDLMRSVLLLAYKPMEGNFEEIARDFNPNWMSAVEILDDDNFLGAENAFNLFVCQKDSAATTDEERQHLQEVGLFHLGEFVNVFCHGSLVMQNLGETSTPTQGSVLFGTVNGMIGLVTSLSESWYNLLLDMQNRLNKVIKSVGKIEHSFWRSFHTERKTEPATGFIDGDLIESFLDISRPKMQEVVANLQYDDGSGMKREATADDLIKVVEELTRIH

Mean asymptote max (%) [1] [%]	mean relative pDC50 [1]	Dmax [2] [%]	Dmax [3] [%]	SMILES
96	8.5	–	–	CC(C)(C)S(=O)(=O)c1cc2c(Nc3ccc4scnc4c3)ccnc2cc1OCCCCCCCC(=O)N1CCC(n2ccc3c(N4CCC(=O)NC4=O)cccc32)CC1 [Example R1, 1-(1-(1-(8-((4-(Benzo[d]thiazol-5-ylamino)-6-(tert-butylsulfonyl)quinolin-7-yl)oxy)octanoyl)piperidin-4-yl)-1H-indol-4-yl)dihydropyrimidine-2,4(1H,3H)-dione]
92	8.3	–	–	CC(C)n1ccc2c(N3CCC(=O)NC3=O)cc(C(=O)NCCOCCOCCOc3cc4nccc(Nc5ccc6scnc6c5)c4cc3S(=O)(=O)C(C)(C)C)cc21 [Example R3, N-(2-(2-(2-((4-(Benzo[d]thiazol-5-ylamino)-6-(tert-butylsulfonyl)quinolin-7-yl)oxy)ethoxy)ethoxy)ethyl)-4-(2,4-dioxotetrahydropyrimidin-1(2H)-yl)-1-isopropyl-1H-indole-6-carboxamide]
88	8.5	–	–	CC(C)(C)S(=O)(=O)c1cc2c(Nc3ccc4scnc4c3)ccnc2cc1OCCCN1CCC(c2cnc(C(=O)N3CCC(n4ccc5c(N6CCC(=O)NC6=O)cccc54)CC3)cn2)CC1.O=CO [Example R2, 1-(1-(1-(5-(1-(3-((4-(Benzo[d]thiazol-5-ylamino)-6-(tert-butylsulfonyl)quinolin-7-yl)oxy)propyl)piperidin-4-yl)pyrazine-2-carbonyl)piperidin-4-yl)-1H-indol-4-yl)dihydropyrimidine-2,4(1H,3H)-dione formate]

Second part, the compound before the results:

SMILES	Mean asymptote max (%) [1] [%]	mean relative pDC50 [1]	Dmax [2] [%]	Dmax [3] [%]
CC1(C)[C@H](NC(=O)c2ccc(N3CCC(CN4CCC(n5ncc6c(N7CCC(=O)NC7=O)cccc65)CC4)CC3)nc2)C(C)(C)[C@H]1Oc1ccc(C#N)c(Cl)c1 [AR41, N-((1r,3r)-3-(3-Chloro-4-cyanophenoxy)-2,2,4,4-tetramethylcyclobutyl)-6-(4-((4-(4-(2,4-dioxotetrahydropyrimidin-1(2H)-yl)-1H-indazol-1-yl)piperidin-1-yl)methyl)piperidin-1-yl)nicotinamide hydrochloride]	–	–	≥ 50	≥ 55
CC1(C)[C@H](NC(=O)c2ccc(N3CCC(CN4CCC(n5ccc6c(N7CCC(=O)NC7=O)nccc65)CC4)CC3)nn2)C(C)(C)[C@H]1Oc1ccc(C#N)c2ncccc12 [EAR251, N-((1r,3r)-3-((8-Cyanoquinolin-5-yl)oxy)-2,2,4,4-tetramethylcyclobutyl)-6-(4-((4-(4-(2,4-dioxotetrahydropyrimidin-1(2H)-yl)-1H-pyrrolo[3,2-c]pyridin-1-yl)piperidin-1-yl)methyl)piperidin-1-yl)pyridazine-3-carboxamide hydrochloride]	–	–	≥ 50	≥ 55
CC1(C)[C@H](NC(=O)c2cnc(N3CCC(CN4CCC(n5ncc6c(N7CCC(=O)NC7=O)cccc65)CC4)CC3)cn2)C(C)(C)[C@H]1Oc1ccc(C#N)c(Cl)c1 [EAR37, N-((1r,3r)-3-(3-Chloro-4-cyanophenoxy)-2,2,4,4-tetramethylcyclobutyl)-5-(4-((4-(4-(2,4-dioxotetrahydropyrimidin-1(2H)-yl)-1H-indazol-1-yl)piperidin-1-yl)methyl)piperidin-1-yl)pyrazine-2-carboxamide hydrochloride]	–	–	≥ 50	≥ 55
CC1(C)[C@H](NC(=O)c2ccc(N3CCC(CN4CCC(n5ccc6c(N7CCC(=O)NC7=O)ncnc65)CC4)CC3)nn2)C(C)(C)[C@H]1Oc1ccc(C#N)c(Cl)c1 [AR247, N-((1r,3r)-3-(3-Chloro-4-cyanophenoxy)-2,2,4,4-tetramethylcyclobutyl)-6-(4-((4-(4-(2,4-dioxotetrahydropyrimidin-1(2H)-yl)-7H-pyrrolo[2,3-d]pyrimidin-7-yl)piperidin-1-yl)methyl)piperidin-1-yl)pyridazine-3-carboxamide]	–	–	≥ 50	≥ 55
CC1(C)[C@H](NC(=O)c2cnc(N3CCC(CN4CCC(n5ccc6c(N7CCC(=O)NC7=O)cncc65)CC4)CC3)nc2)C(C)(C)[C@H]1Oc1ccc(C#N)c(Cl)c1 [EAR18, N-((1r,3r)-3-(3-Chloro-4-cyanophenoxy)-2,2,4,4-tetramethylcyclobutyl)-2-(4-((4-(4-(2,4-dioxotetrahydropyrimidin-1(2H)-yl)-1H-pyrrolo[2,3-c]pyridin-1-yl)piperidin-1-yl)methyl)piperidin-1-yl)pyrimidine-5-carboxamide]	–	–	≥ 50	≥ 55
